Where a SMILES comes first, the peptide text is derived from it. [ ]: non-standard residue; d: D form. The star is where a group is joined. Dap = NC[C@H](N)C(=O)O; X1 = O=C(CCCCCF)*
Biological target: T1, GHSR (Homo sapiens, UniProt Q92847)
T1 construct: expressed in transfected cells; host or cells: CHO-K1
Assay: Radioligand binding assay (125I-ghrelin displacement)
Settings: 125I-ghrelin (human) radioligand; for IC50: read-out: IC50 (nM), binding affinity of fluorine bearing ghrelin analogues, human recombinant CHO-K1 cells as receptor source, 18a-c semi-quantitative from % inhibition at 10^-5 to 10^-8 M, duplicated
Protocol: Radioligand Binding Assay.
IC50 values were determined by a non-linear, least squares regression analysis using MathIQ™ (ID Business Solutions Ltd., UK).

T1 sequence (Q92847 whole entry): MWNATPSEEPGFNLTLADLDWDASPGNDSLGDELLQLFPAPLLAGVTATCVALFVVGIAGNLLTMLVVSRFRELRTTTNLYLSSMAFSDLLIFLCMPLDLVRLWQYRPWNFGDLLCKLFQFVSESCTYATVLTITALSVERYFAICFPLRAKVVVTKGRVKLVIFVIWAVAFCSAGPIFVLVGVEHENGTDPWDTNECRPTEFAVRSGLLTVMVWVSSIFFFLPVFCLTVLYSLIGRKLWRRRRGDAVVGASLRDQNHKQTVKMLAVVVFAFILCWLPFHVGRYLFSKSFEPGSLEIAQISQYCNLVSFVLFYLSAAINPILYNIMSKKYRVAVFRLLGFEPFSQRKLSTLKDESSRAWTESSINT

IC50	inhibition at 2 µM (at 2000 nM)	SMILES
39.6 nM		CC(C)C[C@H](NC(=O)[C@H](Cc1ccccc1)NC(=O)[C@H](CNC(=O)CCCCCCCCF)NC(=O)[C@H](CO)NC(=O)CN)C(=O)N[C@@H](CO)C(=O)N1CCC[C@H]1C(=O)N[C@@H](CCC(=O)O)C(=O)N[C@@H](Cc1c[nH]cn1)C(=O)N[C@@H](CCC(N)=O)C(=O)N[C@@H](CCCNC(=N)N)C(=O)N[C@H](C(=O)N[C@@H](CCC(N)=O)C(=O)N[C@@H](CCC(N)=O)C(N)=O)C(C)C [Cmpd 18b, Ghrelin(1-14)-9C—F]
	~20%	CC(C)C[C@H](NC(=O)[C@H](Cc1ccccc1)NC(=O)[C@H](CNC(=O)CCCCCF)NC(=O)[C@H](CO)NC(=O)CN)C(N)=O [Cmpd 17, Ghrelin(1-5)-6C—F] (H-GS[Dap](X1)FL-NH2)
147 nM		CC(C)C[C@H](NC(=O)[C@H](Cc1ccccc1)NC(=O)[C@H](CNC(=O)CCCCCF)NC(=O)[C@H](CO)NC(=O)CN)C(=O)N[C@@H](CO)C(=O)N1CCC[C@H]1C(=O)N[C@@H](CCC(=O)O)C(=O)N[C@@H](Cc1c[nH]cn1)C(=O)N[C@@H](CCC(N)=O)C(=O)N[C@@H](CCCNC(=N)N)C(=O)N[C@H](C(=O)N[C@@H](CCC(N)=O)C(=O)N[C@@H](CCC(N)=O)C(N)=O)C(C)C [Cmpd 18a, Ghrelin(1-14)-6C—F]

SMILES	IC50	inhibition at 2 µM (at 2000 nM)
CC(C)C[C@H](NC(=O)[C@H](Cc1ccccc1)NC(=O)[C@H](CNC(=O)CCCCCCCCCCCF)NC(=O)[C@H](CO)NC(=O)CN)C(=O)N[C@@H](CO)C(=O)N1CCC[C@H]1C(=O)N[C@@H](CCC(=O)O)C(=O)N[C@@H](Cc1c[nH]cn1)C(=O)N[C@@H](CCC(N)=O)C(=O)N[C@@H](CCCNC(=N)N)C(=O)N[C@H](C(=O)N[C@@H](CCC(N)=O)C(=O)N[C@@H](CCC(N)=O)C(N)=O)C(C)C [Cmpd 18c, Ghrelin(1-14)-12C—F]	27.9 nM	

From patent US8623326B2 (University of Western Ontario, priority 2008, dated 2014)
